In test [1] the test system is Bacillus subtilis MTCC 441. The test can be described thus: In vitro antibacterial activity, dilution susceptibility test (CLSI M07-A10). As to conditions: MTCC441. The test is classed as cell-based. The source says:
(§1) Enterococcus faecium resistant to VRE, and Gram-negative organisms including Klebsiella pneumonia, Escherichia coli, Pseudomonas aeruginosa.

Test [2] concerns Enterococcus faecium ATCC 35667. The description is as above. The format is cell-based. As to conditions: ATCC35667.
Source text: as §1

Test [3] relates to Enterococcus faecium ATCC 51559 (VRE resistant). Described as above. The format is cell-based.
Source text: as §1

For test [4], the system named is Escherichia coli MTCC 443. The description is as above. The test is classed as cell-based. As to conditions: MTCC443.
Source text: as §1

Test [5] concerns Klebsiella pneumonia MTCC 618. Described as above. The format is cell-based. As to conditions: Klebsiella pneumoniae, MTCC618.
Source text: as §1

The subject of test [6] is Pseudomonas aeruginosa MTCC 741. Described as above. The format is cell-based. As to conditions: MTCC741.
Source text: as §1

Test [7] relates to Staphylococcus aureus ATCC 29213. Described as above. The format is cell-based. As to conditions: ATCC29213.
Source text: as §1

Test [8] concerns Staphylococcus aureus ATCC BAA-1556 (MERSA resistant). The description is as above. The format is cell-based. As to conditions: ATCCBAA1556.
Source text: as §1

Test [9] concerns Staphylococcus epidermidis. The description is as above. The test is classed as cell-based.
Source text: as §1

For test [10], the system named is Mycobacterium tuberculosis H37Rv strain. The test can be described thus: Anti-tubercular properties, alamar blue microplate assay. The format is cell-based. As to conditions: 168 h, seven days incubation, read-out: anti-mycobacterial activity (MIC).
The next test has as its target T1, DNA gyrase from E. coli (Escherichia coli, UniProt P0AES4+P0AES6).
T1 construct: purchased Inspiralis
The test can be described thus: Inhibitory activities on E. coli DNA gyrase (Inspiralis assay). The format is biochemical. As for the experimental part: First, the plates were rehydrated with buffer (20 mM Tris-HCl with pH 7.6, 0.01% w/v BSA, 0.05% v/v Tween 20, 137 mM NaCl) and the biotinylated oligonucleotide was then immobilized. After washing off the unbound oligonucleotide, the enzyme test was performed. The reaction volume of 30 μL in buffer (35 mM Tris×HCl with pH 7.5, 4 mM MgCl2, 24 mM KCl, 2 mM DTT, 1.8 mM spermidine, 1 mM ATP, 6.5% w/v glycerol, 0.1 mg/mL albumin) contained 1.5 U of DNA gyrase from E. coli, 0.75 μg of relaxed pNO1 plasmid, and 3 μL solution of the inhibitor in 10% DMSO and 0.008% Tween 20. Reaction solutions were incubated at 37° C. for 30 min. After that, the TF buffer (50 mM NaOAc with pH 5.0, 50 mM NaCl and 50 mM MgCl2) was added to terminate the enzymatic reaction. After additional incubation for 30 min at rt, during which biotinoligonucleotide-plasmid triplex was formed, the unbound plasmid was washed off using TF buffer and SybrGOLD in T10 buffer (10 mM Tris HCl with pH 8.0 and 1 mM EDTA) was added. The fluorescence was measured with a microplate reader (BioTek Synergy H4, excitation: 485 nm, emission: 535 nm). Initial screening was done at 100 or 10 μM concentration of inhibitors. […] GraphPad Prism software was used to calculate the IC50 values. The result is given as the average value of three independent measurements.

SMILES strings stand for the structures. Converted amounts (≈) assume the structure as drawn. Where two headings read alike, the source gives them in different places.

T1 sequence (P0AES4 whole entry, one chain of several): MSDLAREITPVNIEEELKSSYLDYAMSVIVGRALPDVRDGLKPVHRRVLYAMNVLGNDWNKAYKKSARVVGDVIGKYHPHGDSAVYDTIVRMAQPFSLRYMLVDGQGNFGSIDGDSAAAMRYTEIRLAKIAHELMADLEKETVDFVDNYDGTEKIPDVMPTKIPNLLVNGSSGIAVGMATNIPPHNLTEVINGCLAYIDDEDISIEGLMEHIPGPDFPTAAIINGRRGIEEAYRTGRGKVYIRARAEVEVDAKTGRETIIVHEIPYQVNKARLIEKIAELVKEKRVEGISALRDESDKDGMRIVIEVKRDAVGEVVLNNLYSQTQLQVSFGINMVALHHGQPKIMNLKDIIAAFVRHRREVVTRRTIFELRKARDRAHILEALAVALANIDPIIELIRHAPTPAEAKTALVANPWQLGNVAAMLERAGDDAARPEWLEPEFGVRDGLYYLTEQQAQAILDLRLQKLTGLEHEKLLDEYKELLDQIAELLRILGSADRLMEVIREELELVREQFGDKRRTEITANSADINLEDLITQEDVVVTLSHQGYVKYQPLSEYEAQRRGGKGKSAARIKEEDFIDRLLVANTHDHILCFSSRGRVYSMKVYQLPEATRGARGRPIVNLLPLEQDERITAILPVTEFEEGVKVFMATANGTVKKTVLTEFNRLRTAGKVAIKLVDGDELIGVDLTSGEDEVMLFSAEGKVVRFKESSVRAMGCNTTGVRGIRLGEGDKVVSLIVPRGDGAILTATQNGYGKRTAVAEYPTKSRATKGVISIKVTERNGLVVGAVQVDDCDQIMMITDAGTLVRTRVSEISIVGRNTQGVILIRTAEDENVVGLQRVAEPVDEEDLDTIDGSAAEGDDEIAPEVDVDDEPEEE

Broadly, the MIC is the lowest concentration that inhibits growth of the organism. The IC50 is the concentration that gives 50% inhibition. On to `CC(=O)Nc1cccc(Nc2nccc(Nc3ccc(C(=O)O)cc3CN(C)C3CCCCC3)n2)c1` [Compound 7, 4-((2-((3-acetamidophenyl)amino)pyrimidin-4-yl)amino)-3-((cyclohexyl(methyl)amino)methyl)benzoic acid], for which the MIC in test [1] stood at 4 µg/mL (≈ 8.19 µM); in [2], 4 µg/mL (≈ 8.19 µM); in [3] it was 16 µg/mL (≈ 32.7 µM); in [4], 8 µg/mL (≈ 16.4 µM); in [5] (Klebsiella pneumonia MTCC 618, read-out: MIC) it was 4 µg/mL (≈ 8.19 µM); in [6] (Pseudomonas aeruginosa MTCC 741, read-out: MIC) it was 4 µg/mL (≈ 8.19 µM). Moreover, the minimal inhibitory concentration (MIC) amounted to 8 µg/mL (≈ 16.4 µM) in [7], 8 µg/mL (≈ 16.4 µM) in test [8], 8 µg/mL (≈ 16.4 µM) in [9] and 16 µg/mL (≈ 32.7 µM) in [10]. Moreover, the IC50 on DNA gyrase from E. coli was 250 nM.

For `CN[C@H](CC(C)C)C(=O)N[C@H]1C(=O)N[C@@H](CC(N)=O)C(=O)N[C@H]2C(=O)N[C@H]3C(=O)N[C@H](C(=O)N[C@H](C(=O)O)c4cc(O)cc(O)c4-c4cc3ccc4O)[C@H](O)c3ccc(c(Cl)c3)Oc3cc2cc(c3O[C@@H]2O[C@H](CO)[C@@H](O)[C@H](O)[C@H]2O[C@H]2C[C@](C)(N)[C@H](O)[C@H](C)O2)Oc2ccc(cc2Cl)[C@H]1O` [Vancomycin, reference compound], the minimal inhibitory concentration (MIC) in test [5] and in [6] (Pseudomonas aeruginosa) was greater than 128 µg/mL throughout.

Values taken from patent publication US11891362B1, “N2,N4-disubstituted pyrimidine-2,4-diamine compounds as antibacterial agents” (KING FAISAL UNIVERSITY, priority 2023, dated 2024).
